According to patent publication US4362664A, “Vinblastine oxazolidinedione disulfides and related compounds” (priority 1980, dated 1982):

Assays:
[1] = system: Chinese hamster ovary cells; assay: standard mitotic inhibition test employing Chinese hamster ovary cells; assay type: cell-based; conditions: dose 20-2 mcg/ml for accumulation in mitosis; CHO cells
Description: As previously stated, the compounds of this invention are antimitotics, and can adversely affect the growth of malignant cells. This activity is manifested in a standard mitotic inhibition test employing Chinese hamster ovary cells.
In the Table, column 1 gives the name of the compound, column 2 gives the dose in mcg/ml for accumulation in mitosis and column 3, the percent mitotic accumulation as a range.

P388/V = assay: transplanted tumor in mice: P388/V; assay type: in vivo; conditions: every fourth day (three doses)
Experimental: (§1) The bases of this invention and their salts preparable by the processes disclosed herein are active also in vivo against some but not all transplanted tumors in mice.
(§2) The following table--Table 2--gives the results of this experiment in which mice bearing the transplanted tumor were treated with a compound of this invention. In the table, column 1 gives the name of the compound; column 2, the name of the tumor; column 3, the dosage given; and column 4, the percent inhibition of tumor growth (I) or prolongation of life (PL). The following dosage regimen was employed: every fourth day (three doses) starting on the first day after inoculation.

P388 = assay: transplanted tumor in mice: P388; assay type: in vivo; conditions: every fourth day (three doses)
Experimental: as §1, §2

SMILES | percent mitotic accumulation as a range [1] | Percent Prolongation of life (PL) (P388/V; 1.5 mg/kg) [%] | Percent Prolongation of life (PL) (P388/V; 2.0 mg/kg, * = below 30, not statistically significant) [%] | Percent Prolongation of life (PL) (P388; P388, 1.0 mg/kg) [%] | Percent Prolongation of life (PL) (P388; P388, 1.2 mg/kg) [%] | Percent Prolongation of life (PL) (P388; P388, 1.4 mg/kg) [%]
CC[C@]1(O)C[C@H]2CN(CCc3c([nH]c4ccccc34)[C@@](C(=O)OC)(c3cc4c(cc3OC)N(C)[C@H]3[C@]5(OC(=O)N(CCS)C5=O)[C@H](OC(C)=O)[C@]5(CC)C=CCN6CC[C@]43[C@@H]65)C2)C1 [Example 2, Vinblastine 3"-(β-thioethyl)-3-spiro-5"-oxazolidine-2",4"-dione] | 10-15% | – | – | – | – | –
CC[C@]1(O)C[C@H]2CN(CCc3c([nH]c4ccccc34)[C@@](C(=O)OC)(c3cc4c(cc3OC)N(C)[C@H]3[C@]5(OC(=O)N(CCSSCCNC(=O)OC)C5=O)[C@H](OC(C)=O)[C@]5(CC)C=CCN6CC[C@]43[C@@H]65)C2)C1 [Example 1, Vinblastine 3"-(β-[β-(methoxycarbonylamino)ethyldithio]ethyl)-3-spiro-5"-oxazolidine-2",4"-dione] | 7-10% | 30 | 25 | – | – | –
CC[C@]1(O)C[C@H]2CN(CCc3c([nH]c4ccccc34)[C@@](C(=O)OC)(c3cc4c(cc3OC)N(C)[C@H]3[C@]5(OC(=O)N(CCS)C5=O)[C@H](O)[C@]5(CC)C=CCN6CC[C@]43[C@@H]65)C2)C1 [4-desacetyl vinblastine 3"-(β-thioethyl)-3-spiro-5"-oxazolidine-2",4"-dione] | – | – | – | 52 | 65 | 77
